Assay results as given in US7049309B2, “3-Thia-4-arylquinolin-2-one potassium channel modulators” (Bristol-Myers Squibb Company, priority 2003, dated 2006).

Experiments:
[1] = system: cloned mammalian (mSlo or hSlo) BK channels heterologously expressed in Xenopus oocytes; assay: Assay for BK channel openers: two-electrode voltage clamp of BK-mediated outward current in Xenopus oocytes; assay type: cell-based; details: percent increase over BK current in controls, voltage step to +140 mV, IBTX-sensitive current
Method: The ability of the compounds of the invention to open BK channels and increase whole-cell outward (K^+) BK-mediated currents was assessed under voltage-clamp conditions by determining their ability to increase cloned mammalian (mSlo or hSlo) BK-mediated outward current heterologously expressed in Xenopus oocytes [Butler, A., et al., Science 1993, 261, 221–224; Dworetzky, S. I., et al., Mol. Brain Res. 1994, 27, 189–193; Gribkoff, V. K., et al., Mol. Pharmacol. 1996, 50, 206–217]. The two BK constructs employed represent nearly structurally identical homologous proteins, and have proven to be pharmacologically indistinguishable in our tests. To isolate BK current from native (background, non-BK) current, the specific and potent BK channel-blocking toxin iberiotoxin (IBTX) [Galvez, A., et al., J. Biol. Chem. 1990, 265, 11083–11090] was employed at a supramaximal concentration, e.g., 50–100 nanomolar (“nM”). The relative contribution of BK channel-mediated current to total outward current was determined by subtraction of the current remaining in the presence of IBTX (non-BK current) from the current profiles obtained in all other experimental conditions (control, drug, and wash) [Gribkoff, V. K. et al., Mol. Pharmacol. 1996, 50, 206–217]. […] All compounds were tested in 5–10 oocytes and are reported at the indicated concentration of 20 micromolar (“μM”) (or as otherwise indicated); the effect of the selected compounds of the invention on BK current was expressed as the percent of control IBTX-sensitive current at a single transmembrane voltage (+140 mV) and is listed in Table 1. Recordings were accomplished using standard two-electrode voltage clamp techniques [Stuhmer, W., et al., Methods in Enzymology, 1992, 207, 319–339]; voltage-clamp protocols consisted of 500–750 milliseconds (“ms”) duration step depolarizations, from a holding potential of −60 mV, to a final voltage up to +140 mV in 20 mV steps. The experimental media (modified Barth's solution) consisted of millimolar (“mM”): NaCl (88), NaHCO3 (2.4), KCl (1.0), HEPES (10), MgSO4 (0.82), Ca(NO3)2 (0.33), CaCl2 (0.41); pH 7.5.

[2] = system: rat small intestine (ileum) segments; assay: Rat small intestine (ileum) strip relaxation (nifedipine-sensitive force); set-up: species or system rat (Sprague Dawley); details: integral of nifedipine-sensitive force pre- and 30 min post-compound; compound concentration not given
Source text: The ability of the compounds of the invention to relax rat small intestine tissue as a model for the treatment of irritable bowel syndrome is described as follows. Male rats (Harlan, Sprague Dawley, 250–350 g) were sacrificed by decapitation. A portion of small intestine (ileum) was removed and the attached connective tissues and intestinal contents removed. The ileum was cut into segments of ≧1 cm in length. The segments were mounted longitudinally between fixed hooks in organ baths containing warm (37° C.) physiological salt solution (composition in mM: NaCl 118.4, KCl 4.7, KH2PO4 1.2, MgSO4 1.2, CaCl2 1.8, Glucose 10.1, NaHCO3 25; gassed with 95% O2/5% CO2, pH 7.4). A stable tension of ˜1.5 g was maintained in the tissue segments during the equilibration period of 45 minutes. Changes in muscle tension were measured with isometric force transducers (Grass, FT-03C) and recorded using AcqKnowledge data acquisition system (AcqKnowledge for MP100WS, Biopac Systems Inc., Goleta, Calif.). Compound or vehicle was added in the baths for 30 minutes. “Zero” active force was established at the end of the experiment using nifedipine (20 μM). The effects of compounds or vehicle on force was determined by measuring the integral of nifedipine-sensitive force (including resting tone and spontaneous contractions) pre- and 30 min post-compound (or vehicle) addition. Results are expressed as the percentage inhibition of force. DMSO vehicle inhibited force (integral) by −0.6±3.0% (n=25).

In the case of `CN1CCN(CCC(O)CSc2c(-c3cc(Cl)ccc3O)c3cc(C(F)(F)F)ccc3[nH]c2=O)CC1` (stereo not shown) [Example 4, 4-(5-Chloro-2-hydroxyphenyl)-3-[[2-hydroxy-4-(4-methyl-1-piperazinyl)butyl]thio]-6-(trifluoromethyl)-2(1H)-quinolinone], the “% MaxiK opening” value ([1]; at 20 μM) is reported as 515%.

For `COc1ccc(Cl)cc1-c1c(SCC(O)CN2CCC(O)C2)c(=O)[nH]c2ccc(C(F)(F)F)cc12` (stereo not shown) [Example 91, 4-(5-Chloro-2-methoxyphenyl)-3-[[2-hydroxy-3-(3-hydroxy-1-pyrrolidinyl)propyl]thio]-6-(trifluoromethyl)-2(1H)-quinolinone], the “% MaxiK opening” value ([1]; at 20 μM) was 125%.

For `COc1ccc(Cl)cc1-c1c(SCC(O)CN2CCN(C(C)=O)CC2)c(=O)[nH]c2ccc(C(F)(F)F)cc12` (stereo not drawn) [Example 97, 4-Acetyl-alpha-[[[4-(5-chloro-2-methoxyphenyl)-1,2-dihydro-2-oxo-6-(trifluoromethyl)-3-quinolinyl]thio]methyl]-1-piperazineethanol], the “% MaxiK opening” value ([1]; at 20 μM) was 192%.

In the case of `COc1ccc(Cl)cc1-c1c(SCC(O)CN2CCN(c3ncccn3)CC2)c(=O)[nH]c2ccc(C(F)(F)F)cc12` (stereo not shown) [Example 92, 4-(5-Chloro-2-methoxyphenyl)-3-[[2-hydroxy-3-[4-(2-pyrimidinyl)-1-piperazinyl]propyl]thio]-6-(trifluoromethyl)-2(1H)-quinolinone], the “% MaxiK opening” value ([1]; at 1 μM) is reported as 85^⋄ %.

In the case of `CCN(CC)CC(O)CSc1c(-c2cc(Cl)ccc2O)c2cc(C(F)(F)F)ccc2[nH]c1=O` (stereo not shown) [Example 74, 4-(5-Chloro-2-hydroxyphenyl)-3-[[3-(diethylamino)-2-hydroxypropyl]thio]-6-(trifluoromethyl)-2(1H)-quinolinone], the “% inhibition of force (RSI strips)” value [2] is reported as 46% and the “% MaxiK opening” value ([1]; at 20 μM) is reported as 192%.

`O=c1[nH]c2ccc(C(F)(F)F)cc2c(-c2cc(Cl)ccc2O)c1SCC(O)CN1CCCC1` (stereo not shown) [Example 81, 4-(5-Chloro-2-hydroxyphenyl)-3-[[2-hydroxy-3-(1-pyrrolidinyl)propyl]thio]-6-(trifluoromethyl)-2(1H)-quinolinone] was tested, and the “% MaxiK opening” value ([1]; at 20 μM) was 192%.

With `COc1ccc(Cl)cc1-c1c(SCC(O)CN2CCN(CCO)CC2)c(=O)[nH]c2ccc(C(F)(F)F)cc12` (stereo not shown) [Example 79, 4-(5-Chloro-2-methoxyphenyl)-3-[[2-hydroxy-3-[4-(2-hydroxyethyl)-1-piperazinyl]propyl]thio]-6-(trifluoromethyl)-2(1H)-quinolinone] the “% inhibition of force (RSI strips)” value [2] was 10% and the “% MaxiK opening” value ([1]; at 20 μM) was 150%.

`CN(C)CCN1CCN(CC(O)CSc2c(-c3cc(Cl)ccc3O)c3cc(C(F)(F)F)ccc3[nH]c2=O)CC1` (stereo not shown) [Example 86, 4-(5-Chloro-2-hydroxyphenyl)-3-[[3-[4-[2-(dimethylamino)ethyl]-1-piperazinyl]-2-hydroxypropyl]thio]-6-(trifluoromethyl)-2(1H)-quinolinone] was tested, and the “% MaxiK opening” value ([1]; at 20 μM) was 124%.

`COc1ccc(Cl)cc1-c1c(SCC(O)CN2CCN(C)CC2)c(=O)[nH]c2ccc(C(F)(F)F)cc12` (stereo not shown) [Example 102, 4-(5-Chloro-2-methoxyphenyl)-3-[[2-hydroxy-3-(4-methyl-1-piperazinyl)propyl]thio]-6-(trifluoromethyl)-2(1H)-quinolinone] was tested, and the “% MaxiK opening” value ([1]; at 20 μM) was 163%.

`O=c1[nH]c2ccc(C(F)(F)F)cc2c(-c2cc(Cl)ccc2O)c1SCC(O)CN1CCOCC1` (stereo not shown) [Example 82, 4-(5-Chloro-2-hydroxyphenyl)-3-[[2-hydroxy-3-(4-morpholinyl)propyl]thio]-6-(trifluoromethyl)-2(1H)-quinolinone] was tested, and the “% MaxiK opening” value ([1]; at 20 μM) was 292%.

In the case of `O=c1[nH]c2ccc(C(F)(F)F)cc2c(-c2cc(Cl)ccc2O)c1SCC(O)CN1CCSCC1` (stereo not shown) [Example 85, 4-(5-Chloro-2-hydroxyphenyl)-3-[[2-hydroxy-3-(4-thiomorpholinyl)propyl]thio]-6-(trifluoromethyl)-2(1H)-quinolinone], the “% inhibition of force (RSI strips)” value [2] is reported as 40% and the “% MaxiK opening” value ([1]; at 20 μM) is reported as 319%.

With `O=c1[nH]c2ccc(C(F)(F)F)cc2c(-c2cc(Cl)ccc2O)c1SCC(O)CN1CCN(CCO)CC1` (stereo not shown) [Example 84, 4-(5-Chloro-2-hydroxyphenyl)-3-[[2-hydroxy-3-[4-(2-hydroxyethyl)-1-piperazinyl]propyl]thio]-6-(trifluoromethyl)-2(1H)-quinolinone] the “% inhibition of force (RSI strips)” value [2] was 55% and the “% MaxiK opening” value ([1]; at 20 μM) was 287%.

`COc1ccc(Cl)cc1-c1c(SCC(O)CN2CCSCC2)c(=O)[nH]c2ccc(C(F)(F)F)cc12` (stereo not shown) [Example 90, 4-(5-Chloro-2-methoxyphenyl)-3-[[2-hydroxy-3-(4-thiomorpholinyl)propyl]thio]-6-(trifluoromethyl)-2(1H)-quinolinone] was tested, and the “% MaxiK opening” value ([1]; at 20 μM) was 97%.

`COc1ccc(Cl)cc1-c1c(SCC(O)CN2CCC(C)CC2)c(=O)[nH]c2ccc(C(F)(F)F)cc12` (stereo not shown) [Example 107, 4-(5-Chloro-2-methoxyphenyl)-3-[[2-hydroxy-3-(4-methyl-1-piperidinyl)propyl]thio]-6-(trifluoromethyl)-2(1H)-quinolinone] was tested, and the “% MaxiK opening” value ([1]; at 20 μM) was 115%.

`CN(C)CCCN(C)CC(O)CSc1c(-c2cc(Cl)ccc2O)c2cc(C(F)(F)F)ccc2[nH]c1=O` (stereo not shown) [Example 87, 4-(5-Chloro-2-hydroxyphenyl)-3-[[3-[[3-(dimethylamino)propyl]methylamino]-2-hydroxypropyl]thio]-6-(trifluoromethyl)-2(1H)-quinolinone] was tested, and the “% MaxiK opening” value ([1]; at 20 μM) was 214%.
